Holding throughout (conditions): time 25-30 min
Assay [1] addresses Human immunodeficiency virus type 1 reverse transcriptase (Human immunodeficiency virus 1) (UniProt Q72547). The assay can be described thus: Inhibition of HIV-1 reverse transcriptase using 5'-Cy5CAGGAAACAGCTATGAC/3'-GTCCTTTGTCGATACTGTTTTTTT-5' as primer/template at 10 mM preincubated for 20 min followed by dATP addition measured after 5 to 10 mins by gel electrophoresis analysis.

The target is the same in assay [2]. In words: Inhibition of HIV-1 reverse transcriptase using 5'-Cy5CAGGAAACAGCTATGAC/3'-GTCCTTTGTCGATACTGTTTTTTT-5' as primer/template at 5 mM preincubated for 20 min followed by dATP addition measured after 5 to 10 mins by gel electrophoresis analysis.
The target is the same in assay [3]. The assay can be described thus: Inhibition of HIV-1 reverse transcriptase using 5'-Cy5CAGGAAACAGCTATGAC/3'-GTCCTTTGTCGATACTGTTTTTTT-5' as primer/template at 1 mM preincubated for 20 min followed by dATP addition measured after 5 to 10 mins by gel electrophoresis analysis.

Activity calls are given as the source filed them. The rule behind the calls is not given here.

For the compound `Nc1ncnc2c1ncn2CCCOC(CP(=O)(O)O)C(=O)O` (centres undefined), the inhibition entry in assay [1] and in assay [2] was “Active” in each case. Further, in assay [3], the inhibition result is “inactive”.
On to `Nc1ncnc2c1ncn2CCN[C@H](CP(=O)(O)O)C(=O)O`, for which the inhibition result in assay [1] and in assay [3] was “inactive” each time.
In the case of `Nc1ncnc2c1ncn2CCN[C@@H](CP(=O)(O)O)C(=O)O`, the inhibition entry in assay [1] and in assay [3] was “inactive” in each case.
Consider `C[C@H](Cn1cnc2c(N)ncnc21)N(CCP(=O)(O)O)CC(=O)O`, for which the inhibition result in assay [1] and in assay [2] was “Active” throughout. Also, the inhibition entry in assay [3] is “inactive”.
As for `Nc1ncnc2c1ncn2CCOC(CP(=O)(O)O)C(=O)O` (racemic), the inhibition result in assay [1] and in assay [2] was “Active” throughout. Besides, in assay [3], the inhibition entry is “inactive”.
`Nc1ncnc2c1ncn2CCN[C@@H](CO)C(=O)NP(=O)(O)O`: the inhibition result in assay [1] and in assay [2] was “Active” in each case. The inhibition entry in assay [3] was “inactive”.
`Nc1ncnc2c1ncn2CCCN[C@H](CP(=O)(O)O)C(=O)O`: the inhibition entry in assay [1] and in assay [2] was “Active” each time. Besides, the inhibition entry in assay [3] is “inactive”.
